These results are taken from patent US4798898A, “Antitussive and mucus regulating 2-substituted thiazolidines” (Boehringer Biochemia Robin S.p.A., priority 1984, dated 1989).

Where two headings read alike, the source gives them in different places.

For assay [1], the system named is cough induced by citric acid aerosol in guinea pigs. In words: Guinea pig cough test (citric acid aerosol, Charlier procedure). Format: in vivo. The conditions noted are these: for ED50 / decrease of the antitussive potency in comparison with the reference compound 3: guinea pig cough test; for ED50: i.p., 60 minutes after treatment. How it is done:
The techniques described by Charlier et al. (Arch. Int. Pharmacodyn. 134, 306, 1961) and by Stefko et al. (J. Pharm. Exp. Therap., 108, 217, 1953), adapted with minor modifications, are used to investigate the antitussive properties of the compounds of the invention. Codeine phosphate is used as positive reference compound.
According to the Charlier procedure guinea pigs are exposed to a citric acid aerosol (7.5%) and cough is recorded 60 minutes after the antitussive treatment by i.p. route. Male animals of 300-400 g pigs are placed in perspex box (20×30×30 cm) connected to an aerosol compressor; the animals are subjected to a citric acid saturated atmosphere, 60 minutes after the i.p. injection of a compound of the invention (0.1 and 0.3M solutions; 1 ml/kg).
The total number of cough strokes and the delay of the first cough are recorded during the first five minutes.
Five guinea pigs are used for each dose level and the results are compared with controls (vehicle treatment) and codeine phosphate 0.07M solution (standard treatment).
ED50 and the corresponding delay of first cough stroke are calculated.
The data obtained by i.p. administration are confirmed by oral administration.

For assay [2], the system named is pathological sputum of bronchitic rabbits. Description: Mucus regulating properties in bronchitic rabbits (sputum AUC as % compared to bronchitic controls). The assay is classed as in vivo, male New Zealand white rabbits. The conditions noted are these: for Fucose (mg/ml), AUC as a 100% compared to bronchitic controls / Galactose (mg/ml), AUC as a 100% compared to bronchitic controls / Mucus production (ml/kg), AUC as a 100% compared to bronchitic controls / Phospholipids (mg/ml), AUC as a 100% compared to bronchitic controls / Protein (mg/ml), AUC as a 100% compared to bronchitic controls / Sialic acid (mg/ml), AUC as a 100% compared to bronchitic controls / Viscosity (cps), AUC as a 100% compared to bronchitic controls: Table 2, equimolecular amounts to S-carboxymethyl cysteine; for mucus regulating activity (in words): rabbit, in vivo; for mucus regulating effectiveness compared with carboxymethylcysteine: dosage level 0.01-0.08M vs 0.153M carboxymethylcysteine. How it is done: The animals are submitted to inhalation of a 5% H2 SO3 aqueous solution by aerosol (exposition of 3 hours a day for 3 alternate days), to induce a chronic bronchial inflammatory disease which causes a production of pathological sputum in the bronchial tree.
Aim of the experiments is to evaluate modifications of selective parameters such as dry weight of the sputum, viscosity, content in proteins, phospholipids, galactose, sialic acid and fucose, induced in this pathological sputum by pharmacological treatment with the compounds of the invention.
To this purpose, the sputum produced in the bronchial tree is collected daily, through a "T" shaped glass cannula, inserted in the trachea, before and after oral twice a day (9.00 a.m. and 4.00 p.m.) treatment with one of the compounds of the invention.
The schedule treatment procedure is shown in the following Scheme 1: [drawing 21] where 0 indicates the day of implantation of the tracheal cannula; -7-5-3 indicate the days of H2 SO3 treatment (H); 1, 2, 3, 4 indicate the days of oral administration of the compounds of the invention (T) and the time of mucus collection (M).
The mucus collected in day 1 in the morning is considered as a blank; 7 indicates the day of the animal sacrifice after the mucous collection.
The sputum samples are stored in the freezer (-20° C.) until the investigation of biological and rheological parameters is carried out.
The samples are investigated for relative viscosity, measured at 37° C. with a Brookfield viscometer (model LT VD) equipped with a 1,565° cone-plate, and aliquoted for biochemical analysis of protein, phospholipids, galactose, sialic acid and fucose contents. Dry weight of the mucus is also determined. For each parameter, cumulative data are referred to a seven days period after the beginning of the treatment and they are extrapolated using the AUC method (area under curve) calculated by the trapazoidal rule. Finally the data are compared with data obtained from controls (vehicle treatment), non bronchitic rabbits (vehicle treatment) and positive controls bronchitic rabbits treated with 0.153M […].

Setting [3] is: Cavia porcellus, ip, 1 h, read-out: ED50.
[4] abbreviates: Table 1, 0.153 M, oral, AUC over seven days.

Consider `COc1ccccc1OCC1SCCN1C(=O)CSC(=O)CN1CCN(C)CC1` (stereo not shown) [3-(4'-methylpiperazine-1-yl)acetylthioacetyl-2-(o-methoxyphenoxy)methylthiazolidine], for which, in assay [1] (setting [3]), the ED50 (as a rule, the dose that gives a 50% effect, or the effect in half of the subjects) fell in the range of 0.5 to 4 mg/kg.

Regarding “3-acetylthioacetyl-2-[2'-(o-acetylthioacetoxyphenyl)ethyl]thiazolidine”, in assay [2] (oral), the “Fucose (mg/ml), AUC as a 100% compared to bronchitic controls” value worked out at 128%; the “Galactose (mg/ml), AUC as a 100% compared to bronchitic controls” value is recorded as 67%; the “Mucus production (ml/kg), AUC as a 100% compared to bronchitic controls” value is listed as 76.1%; the “Phospholipids (mg/ml), AUC as a 100% compared to bronchitic controls” value is 47.2%. Also, in assay [2] (oral), the “Protein (mg/ml), AUC as a 100% compared to bronchitic controls” value was found to be 48%; the “Sialic acid (mg/ml), AUC as a 100% compared to bronchitic controls” value is 36.2%; the “Viscosity (cps), AUC as a 100% compared to bronchitic controls” value is 70%. Besides, the “mucus regulating activity (in words)” value in assay [2] is reported as “particularly favourable increase of their mucus regulating activity”. Besides, in assay [1], the “decrease of the antitussive potency in comparison with the reference compound 3” value (from here on “decrease of the antitussive potency”) is approximately 10 times and the ED50 came to 61 mg/kg.

Turning to `COc1ccccc1SCC1SCCN1C(=O)CSC(C)=O` (stereo not drawn) [3α-acetylthioacetyl-2-(o-methoxyphenylthio)methyl-thiazolidine], the median effective dose (ED50) in assay [1] (setting [3]) was in the range of 0.5 to 4 mg/kg.

As to `COc1ccccc1OCC1SCCN1C(=O)CSC(=O)CCC1CCCCC1` (stereo not shown) [3-(3'-cyclohexyl)propionylthioacetyl-2-(o-methoxyphenoxy)methyl-thiazolidine], in assay [1] (setting [3]), the ED50 lay within 0.5 to 4 mg/kg.

Consider `CC(=O)SCC(=O)N1CCSC1COc1ccccc1O` (stereo not shown) [3-acetylthio-acetyl-2-[(o-hydroxyphenoxy)methyl]thiazolidine], for which, in assay [2] (oral), the “Fucose (mg/ml), AUC as a 100% compared to bronchitic controls” value came out at 90.8%; the “Galactose (mg/ml), AUC as a 100% compared to bronchitic controls” value was determined as 38.2%; the “Mucus production (ml/kg), AUC as a 100% compared to bronchitic controls” value is reported as 99.2%; the “Phospholipids (mg/ml), AUC as a 100% compared to bronchitic controls” value was 47%. Besides, in assay [2] (oral), the “Protein (mg/ml), AUC as a 100% compared to bronchitic controls” value came to 62.0%; the “Sialic acid (mg/ml), AUC as a 100% compared to bronchitic controls” value was 49.5%; the “Viscosity (cps), AUC as a 100% compared to bronchitic controls” value is reported as 31.9%. Moreover, the “mucus regulating activity (in words)” value in assay [2] is listed as “particularly favourable increase of their mucus regulating activity”. Besides, the ED50 in assay [1] (setting [3]) was determined as 60 mg/kg. In assay [1], the “decrease of the antitussive potency” value is on record as approximately 10 times.

On to `CC(=O)SCC(=O)N1CCSC1COc1ccccc1C` (stereo not shown) [3-acetylthioacetyl-2-(o-tolyloxymethyl)thiazolidine], for which, in assay [2] (tested as mucus regulator), the “fucose content in the mucus (in words)” value is reported as “increases”, the “galactose content in the mucus (in words)” value is listed as “poorly affecting”, the “protein content in the mucus (in words)” value was “increases” and the “sialic content in the mucus (in words)” value was “poorly affecting”. Also, in assay [2] (tested as mucus regulator), the “viscosity of the mucus (in words)” value is “increases”. Besides, the “antitussive properties (in words)” value in assay [1] is given as “devoid of any antitussive properties”.

`COc1ccccc1OCC1NCCS1` (stereo not shown) [2-(o-methoxyphenoxy)-methyl-thiazolidine, 2-(o-methoxyphenoxymethyl)thiazolidine]: in assay [2] (oral), the “Fucose (mg/ml), AUC as a 100% compared to bronchitic controls” value is recorded as 76%; the “Galactose (mg/ml), AUC as a 100% compared to bronchitic controls” value is on record as 59%; the “Mucus production (ml/kg), AUC as a 100% compared to bronchitic controls” value is reported as 124%; the “Phospholipids (mg/ml), AUC as a 100% compared to bronchitic controls” value was 106%. In assay [2] (oral), the “Protein (mg/ml), AUC as a 100% compared to bronchitic controls” value is recorded as 92%; the “Sialic acid (mg/ml), AUC as a 100% compared to bronchitic controls” value was determined as 85%; the “Viscosity (cps), AUC as a 100% compared to bronchitic controls” value came out at 116%.

As to `N[C@@H](CSCC(=O)O)C(=O)O` [S--carboxymethyl cysteine, S-carboxymethyl cysteine, reference compound], in assay [2] (setting [4]), the “Fucose mg/ml, AUC as a % compared to bronchitic controls” value was 56%; the “Galactose mg/ml, AUC as a % compared to bronchitic controls” value worked out at 64%; the “Mucus production ml/kg, AUC as a % compared to bronchitic controls” value was found to be 97%; the “Phospholipids mg/ml, AUC as a % compared to bronchitic controls” value is listed as 108%. Further, in assay [2] (setting [4]), the “Protein mg/ml, AUC as a % compared to bronchitic controls” value is 105%; the “Sialic acid mg/ml, AUC as a % compared to bronchitic controls” value is recorded as 60%; the “Viscosity (cps), AUC as a % compared to bronchitic controls” value came to 52%.

Turning to `CCOCCSCC(=O)N1CCSC1COc1ccccc1OC` (stereo not shown) [3-(3-thia-6-oxa-capriloyl)-2-(O-methoxyphenoxy)methylthiazolidine], in assay [2], the “mucus regulating effectiveness compared with carboxymethylcysteine” value was “at least as effective as 0.153M of 5-carboxymethylcysteine”.

For the compound `COc1ccccc1OCC1SCCN1C(=O)CSC(=O)c1ccccc1` (stereo not shown) [3-benzoylthioacetyl-2-(o-methoxyphenoxy)methyl-thiazolidine], in assay [1] (setting [3]), the ED50 is 0.5 to 4 mg/kg.

For the compound `CC(=O)SCC(=O)Oc1ccccc1OCC1SCCN1C(=O)CSC(C)=O` (stereo not drawn) [3-α-acetylthioacetyl-2-[(o-α-acetylthioacetoxyphenoxy)methyl]thiazolidine], in assay [2] (oral), the “Fucose (mg/ml), AUC as a 100% compared to bronchitic controls” value is 147.9%; the “Galactose (mg/ml), AUC as a 100% compared to bronchitic controls” value is listed as 72.9%; the “Mucus production (ml/kg), AUC as a 100% compared to bronchitic controls” value was 74.0%; the “Phospholipids (mg/ml), AUC as a 100% compared to bronchitic controls” value amounted to 49.8%. Further, in assay [2] (oral), the “Protein (mg/ml), AUC as a 100% compared to bronchitic controls” value is 46.9%; the “Sialic acid (mg/ml), AUC as a 100% compared to bronchitic controls” value amounted to 31.3%; the “Viscosity (cps), AUC as a 100% compared to bronchitic controls” value is listed as 71.9%. In addition, in assay [2], the “mucus regulating activity (in words)” value is “particularly favourable increase of their mucus regulating activity”. Besides, the ED50 in assay [1] (setting [3]) turned out to be 162 mg/kg. Also, in assay [1], the “decrease of the antitussive potency” value was approximately 10 times.

Regarding `COc1ccccc1OCC1SCCN1C(=O)CN1CCN(C)CC1` (stereo not shown) [3-(4'-methyl-piperazin-1'-yl)acetyl-2-(o-methoxyphenoxy)methyl-thiazolidine], the ED50 in assay [1] (setting [3]) lay in the range of 0.5 to 4 mg/kg.

Take `O=C(O)C1CSC(COc2ccccc2O)N1` (stereo not shown) [4-carboxy-2-[(o-hydroxyphenoxy)methyl]-thiazolidine]: the “mucus regulating activity (in words)” value in assay [2] was “high mucus regulating activity”. Besides, the “antitussive properties (in words)” value in assay [1] is on record as “reduced antitussive potency”.

For `COc1ccccc1OCC1SCCN1C(=O)CCn1ccnc1` (stereo not shown) [3-(3-imidazol-1-yl)-propionyl-2-(O-methoxyphenoxy)methylthiazolidine], the “mucus regulating effectiveness compared with carboxymethylcysteine” value in assay [2] was “at least as effective as 0.153M of 5-carboxymethylcysteine”.

As for `C#CCOc1ccccc1OCC1SCCN1C(=O)CCn1ccnc1` (stereo not shown) [3-(3-imidazol-1-yl)-propionyl-2-(O-propargyloxyphenoxy)methyl-thiazolidine], in assay [2], the “mucus regulating effectiveness compared with carboxymethylcysteine” value was “at least as effective as 0.153M of 5-carboxymethylcysteine”.

For the compound `CCOCCOCC(=O)N1CCSC1COc1ccccc1OC` (stereo not shown) [3-(3,6-dioxa-capriloyl)-2-(O-methoxyphenoxy)methyl-thiazolidine], the “mucus regulating effectiveness compared with carboxymethylcysteine” value in assay [2] is recorded as “at least as effective as 0.153M of 5-carboxymethylcysteine”.
